Measurements reported in US20240091314A1, “USE OF THYMOSIN ALPHA FOR THE TREATMENT OF SEPSIS” (SciClone Pharmaceuticals, Inc., priority 2012, published 2024).

Columns and labels:
[1] = system: CD4+/CD8+; test: ETASS trial: CD4+/CD8+ ratio; assay type: in vivo, human
Method: (§1) In the Tα1 group, patients received subcutaneous injections of 1.6 mg Tα1 (ZADAXIN™, SciClone Pharmaceuticals, Foster City, CA, USA) twice per day for five consecutive days, then once per day for two consecutive days. Prior to administration, the lyophilized powder is to be reconstituted with 1 ml of the provided diluent (sterile water for injection). After reconstitution, the final concentration of Tα1 is 1.6 mg/mL. In the control group, patients received subcutaneous injections of 1 mL normal saline twice per day for five consecutive days, then once per day for two consecutive days. According to trial protocol, therapy had to be started within 4 hrs after enrollment.
(§2) The primary efficacy end point was death from any cause and was assessed 28 days after the initiation of treatment assignment. Secondary outcomes included dynamic changes of Sequential Organ Failure Assessment (SOFA), CD 4+/CD8+ and monocyte human leukocyte antigen-DR (mHLA-DR) expression measured on day 0 (the day of enrollment), 3 and 7 in both groups. All mHLA-DR measurements were done in the center laboratory of the First Affiliated Hospital of Sun Yat-sen University. 1 ml unprocessed EDTA whole blood was stored on ice at once after drawing and was transferred to the center laboratory as soon as possible to guarantee measurement within 3 hrs after blood drawing. The method of measuring mHLA-DR was mentioned in our previous paper. Once patients were enrolled, data including demographic characteristics, microbiological findings (primary infection source and the identified microorganisms) and comorbidities were collected when available. The following clinical parameters were recorded on specific days after enrollment: on day 0, the severity as assessed by the Acute Physiology and Chronic Health Evaluation II (APACHE II); on day 0, 3, 7, SOFA, hematologic and biochemical findings, results of mHLA-DR, CD4+/CD8+ tests. The time of the first organ dysfunction was retrospectively estimated according to objective data such as blood gas analysis when the patient was enrolled.
(§3) Based on a previous study, a sample size of 334 patients was required to show a reduction in 28-day mortality rate from 50% to 35% by Tα1 treatment, with a two-sided test (a error=5%; power=80%). Considering a possible drop-out rate of 10%, the trial would need to enroll 368 patients in total. Demographic data, outcome data and other laboratory parameters were summarized by frequency for categorical variables and mean±standard deviation (SD) or median with interquartile range (IQR) for continuous variables. Proportions were compared with chi-square test or Fisher's exact test. Continuous variables were tested by means of t test with normal distribution or Wilcoxon rank-sum test with non-normal distribution. The comparison of primary outcome between two groups was performed by means of Cochran-Mantel-Haenszel test, in which patients were stratified on a number of baseline covariates such as mHLA-DR, scores of APACHE and SOFA, surgical and cancer history, sex and age. The corresponding relative risks (RRs) with 95% confidence intervals (Cis) were computed with logit-adjusted method. Kaplan-Meier estimates without adjustment for baseline covariates were used for survival time analysis, and log-rank tests for comparison. To estimate mean changes from baseline in laboratory parameters, linear mixed models for repeated measures were employed, taking into account the clustering of participating centers and repeated measurements within patients. This model included terms for baseline measurement, treatment group, visit, and treatment×visit interaction. Least-squares means with 95% CIs were reported. We also analyzed the efficacy parameters of the study drug in different prespecified subgroups. The heterogeneity of treatment effects among subgroups was assessed with use of interaction tests. […]

[2] = system: mHLA-DR (monocyte human leukocyte antigen-DR); test: ETASS trial: monocyte HLA-DR expression (% of positive monocytes); assay type: in vivo
Method: as §1, §2, §3

[3] = system: patients with severe sepsis; test: ETASS trial: safety and tolerability assessment; assay type: in vivo, human; settings: for drug-related serious/severe adverse events: assessed by the investigator
Method: as §1
Safety and tolerability assessment of Tα1 (see Additional file 3) was based on the comparison of all available information obtained from the two groups with respect to detected outliers in laboratory safety data, drug-related serious adverse events (assessed by the investigator) and deterioration of organ and system function (assessed by the individual SOFA component scoring for respiratory, cardiovascular, hepatic, coagulation, renal and nervous systems that arose during the treatment).

[4] = system: patients with severe sepsis; test: ETASS multicenter randomized controlled trial: mortality, prognosis and SOFA in severe sepsis; assay type: in vivo, human
Method: We did a prospective, controlled, single-blinded, multi-center randomized clinical trial, which was conducted in the ICUs of six tertiary, teaching hospitals. The ethics committee of the First Affiliated Hospital of Sun Yat-sen University approved the protocol (200815). Written informed consents were obtained from the patients or next of kin for patients unable to consent. The trial was registered with ClinicalTrials.gov, number NCT00711620.
From May 12, 2008 to Dec. 22, 2010 patients diagnosed with severe sepsis admitted to ICUs were enrolled in the trial. The criteria for severe sepsis were a modification of those defined by Bernard et al. (see Additional file 1).
To reduce the impact on the results from heterogeneity of severe sepsis and inter-hospital variation in patient sources as much as possible, stratification by investigative center in combination with computer-generated block randomization (block size=8) according to the sequence of recruitment was employed in the enrollment process. The method of randomization and block size were blinded until the data analysis was finished completely. Clinicians who enrolled the subjects were not involved in data collection. Eligible patients were randomly assigned in a 1:1 ratio in each hospital with four in each block assigned to receive the study drug and the other four to the control group after telephone verification through a randomization center. The allocation sequence was concealed from the researchers. To prevent advance knowledge of treatment assignment and subversion of the allocation sequence, trial entry sheet of the case report form (CRF) was filled out and informed consent was obtained before disclosing the unique participant number and the allocated group; the unique number generated could not be changed and deleted afterward. We used normal saline as placebo. Patients were blinded to the treatment assignments. All statistical analysis was done with masking maintained.
as §1
The treating physicians dictated patient care to current international guidelines, including adequate empiric antibiotic therapy based on current recommendations, ventilation regimen (pressure control mode), blood glucose control, resuscitation and hemodynamic support, organ support, sedation or analgesia as needed and adequate nutrition. Empirical antibiotic therapy was considered adequate when at least one effective drug was included in the empirical antibiotic treatment within the first 24 hrs of the admission to the ICU and the optimal dose and the correct route of administration were in accordance with medical standards and in ICU survivors without microbiologically detected microorganism in bloodstream or focus. When the empirical antibiotic therapy had to be changed after microbiological detection of microorganism, it was considered inadequate, whereas in non-survivors without microbiologically detected microorganism in bloodstream or focus it was considered not evaluable.
The primary efficacy end point was death from any cause and was assessed 28 days after the initiation of treatment assignment. […]

[5] = 1.6 mg s.c. twice per day 5 days, then once per day 2 days, n = 181
[6] = during the 28-day study period, n = 181

## thymosin alpha 1 [Tα1]
[1]; 7 days
  ratio of CD4+/CD8+ during the 7 days: remained unchanged
[1]; Day 0 (day of enrollment)
  CD4+/CD8+, Mean (95% CI): 2.5
[1]; Day 3
  CD4+/CD8+, Mean (95% CI): 2.7
[1]; Day 7
  CD4+/CD8+, Mean (95% CI): 2.5
[1]; Tα1 group vs control group
  CD4+/CD8+ ΔDay 3, between groups difference: 0
  CD4+/CD8+ ΔDay 7, between groups difference: 0.1
[1]; day 3 compared with day 0
  CD4+/CD8+ change ΔDay 3: 0.3
[1]; day 7 compared with day 0
  CD4+/CD8+ change ΔDay 7: 0.1
[2]; Day 0 (day of enrollment)
  mHLA-DR, Mean (95% CI): 51.8%
[2]; Day 3
  mHLA-DR, Mean (95% CI): 59.8%
[2]; Day 7
  mHLA-DR, Mean (95% CI): 68.9%
[2]; Tα1 group vs control group
  mean difference in mHLA-DR changes between the two groups, day 3: 3.9%
  mean difference in mHLA-DR changes between the two groups, day 7: 5.8%
[2]; day 3 compared with day 0
  mHLA-DR mean change from baseline ΔDay 3: 8.0%
[2]; day 7 compared with day 0
  mHLA-DR mean change from baseline ΔDay 7: 17.0%
[3]
  drug-related serious/severe adverse events: no Tα1-related severe adverse event (SAE) was reported
[3]; listed as Talpha1
  drug-related serious/severe adverse events: No serious drug-related adverse event
[3]; listed as Thymosin alpha 1
  drug-related serious/severe adverse events: not observed
[3]; during the treatment, n = 181
  patients with impairment (SOFA component score deterioration): Cardiovascular system, frequency in parentheses: (15.5)
  patients with impairment (SOFA component score deterioration): Cardiovascular system, number: 28
  patients with impairment (SOFA component score deterioration): Coagulation system, frequency in parentheses: (26.5)
  patients with impairment (SOFA component score deterioration): Coagulation system, number: 48
  patients with impairment (SOFA component score deterioration): Hepatic system, frequency in parentheses: (11.6)
  patients with impairment (SOFA component score deterioration): Hepatic system, number: 21
  patients with impairment (SOFA component score deterioration): Nervous system, frequency in parentheses: (7.7)
  patients with impairment (SOFA component score deterioration): Nervous system, number: 14
  patients with impairment (SOFA component score deterioration): Renal system, frequency in parentheses: (14.4)
  patients with impairment (SOFA component score deterioration): Renal system, number: 26
  patients with impairment (SOFA component score deterioration): Respiratory system, frequency in parentheses: (13.3)
  patients with impairment (SOFA component score deterioration): Respiratory system, number: 24
[3]; in vivo
  difference vs control in frequency of outlying laboratory values and all-cause organ or system impairment: no statistically significant differences
  treatment discontinuation due to intolerance or adverse events: no treatment was discontinued
[3]; n = 181
  patients with Hypoglycemia, frequency in parentheses: (4.4)
  patients with Hypoglycemia, number: 8
  patients with outlying values: ALT (U/L), frequency in parentheses: (21.0)
  patients with outlying values: ALT (U/L), number: 38
  patients with outlying values: AST (U/L), frequency in parentheses: (23.8)
  patients with outlying values: AST (U/L), number: 43
  patients with outlying values: Creatinine (mmol/L), frequency in parentheses: (9.9)
  patients with outlying values: Creatinine (mmol/L), number: 18
  patients with outlying values: Hemoglobin (g/L), frequency in parentheses: (14.9)
  patients with outlying values: Hemoglobin (g/L), number: 27
  patients with outlying values: Platelets 10^3/mm^3), frequency in parentheses: (37.0)
  patients with outlying values: Platelets 10^3/mm^3), number: 67
[4]; [5]
  28-day mortality (death from any cause), number of patients: 47
  28-day mortality (death from any cause), rate: 26.0%
[4]; 1.6 mg s.c. twice per day 5 days, then once per day 2 days, n = 181, listed as Talpha1
  28-day mortality (death from any cause), rate: 26.0%
[4]; 1.6 mg s.c. twice per day 5 days, then once per day 2 days, n = 181, listed as TαI
  28-day mortality (death from any cause), rate: (26.0%)
[4]; 28 days, log rank P=0.049
  survival after enrollment vs control group (Kaplan-Meier, log rank): survived longer
[4]; Day 0 (day of enrollment)
  SOFA score, Mean (95% CI): 7.9
[4]; Day 3
  SOFA score, Mean (95% CI): 6.1
[4]; Day 7
  SOFA score, Mean (95% CI): 5.3
[4]; Tα1 group vs control group
  SOFA score ΔDay 3, between groups difference: −0.5
  SOFA score ΔDay 7, between groups difference: −0.7
[4]; day 3 compared with day 0
  SOFA score change ΔDay 3: −1.8
[4]; day 7 compared with day 0
  SOFA score change ΔDay 7: −2.5
[4]; [6]
  ICU-free days, Median (95% CI): 10.0 days
  Ventilation-free days, Median (95% CI): 18.0 days
[4]; in vivo
  relative risk of death in hospital compared to the control group: 0.73
[4]; n = 181
  Duration of ventilation, Median (IQR): 7.0
  ICU stay, Median (IQR): 11.0
  In-ICU mortality, number of patients: 35
  In-ICU mortality, rate: (19.3%)
  In-hospital mortality, number of patients: 52
  In-hospital mortality, rate: 28.7%
[4]; n = 181, listed as TαI
  In-hospital mortality, rate: (28.7%)
[4]; non-cancerous patients
  relative risk of death, non-cancerous patients: 0.91
[4]; non-stratified analysis
  relative risk of death within 28 days as compared to the control group: 0.74
[4]; patients with cancer
  relative risk of death compared to the control group, subgroup of patients with cancer: 0.46
[4]; stratified analyses
  primary end point in prespecified subgroups (APACHE II, SOFA, mHLA-DR, surgery or cancer history, sex, age): tended to improve outcome but without statistical significance
[4]; vs control group
  absolute reduction in 28-day mortality: 9.0%
  decreasing tendency within 7 days in SOFA score: seemed to favor the Tα1 group
  difference between the two groups in ICU mortality, ventilation-free days, ICU-free days, length of ICU stay and duration of mechanical ventilation: no significant difference
